Data: ChEMBL document CHEMBL1125430, “Analogues of the dioxolanes dexoxadrol and etoxadrol as potential phencyclidine-like agents. Synthesis and structure-activity relationships” (J Med Chem, 1992)

Species: Rattus norvegicus
Assay: Displacement of [3H]TCP from PCP receptor in tissue preparation of whole rat brain minus cerebellum.
Format: functional, organism-based

| SMILES | Ki |
| --- | --- |
| CCC1(CC)OC[C@H]([C@@H]2CCCCN2)O1 | 87000 nM |
| CC[C@]1(c2cccc(O)c2)OC[C@H]([C@@H]2CCCCN2)O1 | 489 nM |
| c1ccc(CN2CCCC[C@H]2[C@H]2COC(c3ccccc3)(c3ccccc3)O2)cc1 | 10100 nM |
| CN1CCCC[C@H]1[C@H]1COC(c2ccccc2)(c2ccccc2)O1 | 4400 nM |
| CC[C@]1(c2ccccc2Cl)OC[C@H]([C@@H]2CCCCN2)O1 | 14.3 nM |
| CC[C@]1(c2ccccc2F)OC[C@H]([C@@H]2CCCCN2)O1 | 36 nM |
| CNC[C@H]1COC(c2ccccc2)(c2ccccc2)O1 | 7300 nM |
| NC[C@H]1COC(c2ccccc2)(c2ccccc2)O1 | 1400 nM |
| CC[C@]1(c2cccc([N+](=O)[O-])c2)OC[C@H]([C@@H]2CCCCN2)O1 | 1320 nM |
| CCCCCCCCC[C@]1(c2ccccc2)OC[C@H]([C@@H]2CCCCN2)O1 | 43000 nM |
| CCCC[C@]1(c2ccccc2)OC[C@H]([C@@H]2CCCCN2)O1 | 200 nM |
| CC[C@]1(c2ccc(O)cc2)OC[C@H]([C@@H]2CCCCN2)O1 | 19900 nM |
| C=CCN1CCCC[C@H]1[C@H]1COC(c2ccccc2)(c2ccccc2)O1 | 15200 nM |
| CCC[C@H](NC)[C@H]1COC(c2ccccc2)(c2ccccc2)O1 | 7000 nM |
| c1ccc(C2(c3ccccc3)OCC(C3CCCCN3)CO2)cc1 (stereo not drawn) | > 100000 nM |
| CC[C@]1(c2cccc(Cl)c2)OC[C@H]([C@@H]2CCCCN2)O1 | 59 nM |
| C1=Cc2ccccc2C2(OC[C@H]([C@@H]3CCCCN3)O2)c2ccccc21 | 325 nM |
| CCNC[C@H]1COC(c2ccccc2)(c2ccccc2)O1 | 8400 nM |
| C[C@H](N)[C@H]1COC(c2ccccc2)(c2ccccc2)O1 | 607 nM |
| CC(C)[C@]1(c2ccccc2)OC[C@H]([C@@H]2CCCCN2)O1 | 45 nM |
| CC[C@]1(c2cccc(N=C=S)c2)OC[C@H]([C@@H]2CCCCN2)O1 | 590 nM |
| CN[C@@H](C)[C@H]1COC(c2ccccc2)(c2ccccc2)O1 | 703 nM |

| SMILES | Ki |
| --- | --- |
| CC[C@]1(c2ccsc2)OC[C@H]([C@@H]2CCCCN2)O1 | 124 nM |
| c1ccc(C2(c3ccccc3)OC[C@H]([C@@H]3CCCN3)O2)cc1 | > 10000 nM |
| CCN[C@@H](C)[C@H]1COC(c2ccccc2)(c2ccccc2)O1 | 9000 nM |
| CCCCCCN1CCCC[C@H]1[C@H]1COC(c2ccccc2)(c2ccccc2)O1 | 21200 nM |
| CC[C@]1(c2ccccc2O)OC[C@H]([C@@H]2CCCCN2)O1 | 293 nM |
| CC[C@]1(c2ccc(Cl)cc2)OC[C@H]([C@@H]2CCCCN2)O1 | 2800 nM |
| CC[C@]1(c2cccc(N)c2)OC[C@H]([C@@H]2CCCCN2)O1 | 1230 nM |
| CCC[C@]1(c2ccccc2)OC[C@H]([C@@H]2CCCCN2)O1 | 69 nM |
| CC[C@]1(c2cccs2)OC[C@H]([C@@H]2CCCCN2)O1 | 205 nM |
| CCN1CCCC[C@H]1[C@H]1COC(c2ccccc2)(c2ccccc2)O1 | 6900 nM |
| c1ccc(C2(c3ccccc3)OC[C@@H]([C@@H]3CCCN3)O2)cc1 | 3300 nM |
| CC[C@]1(c2ccc(F)cc2)OC[C@H]([C@@H]2CCCCN2)O1 | 649 nM |
| C[C@]1(c2ccccc2)OC[C@H]([C@@H]2CCCCN2)O1 | 847 nM |
| CCC[C@H](N)[C@H]1COC(c2ccccc2)(c2ccccc2)O1 | 3450 nM |
| CCCN1CCCC[C@H]1[C@H]1COC(c2ccccc2)(c2ccccc2)O1 | 6800 nM |
| c1ccc([C@H]2OC[C@H]([C@@H]3CCCCN3)O2)cc1 | 25000 nM |
| c1ccc2c(c1)-c1ccccc1C21OC[C@H]([C@@H]2CCCCN2)O1 | 15500 nM |
| c1ccc(C2(c3ccccc3)CCC(C3CCCCN3)C2)cc1 (single isomer, unassigned; 40a) | 52000 nM |
| c1ccc(C2(c3ccccc3)CCC(C3CCCCN3)C2)cc1 (single isomer, unassigned; 40b) | 8300 nM |
| CC[C@]1(c2ccccc2)OC[C@H]([C@@H]2CCCCN2)O1 [ETOXADROL] | 107 nM |
| c1ccc(C2(N3CCCCC3)CCCCC2)cc1 [PHENCYCLIDINE] | 80 nM |
